Assays:
[1] = tested on: OPM-2 (Plasma Cell Myeloma); test: combination Emax (second highest fraction inhibited in the dose matrix, 72 h); higher = more inhibition; extreme values may be limits of the assay
In short: (§1)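 Bliss excess equals the observed combination effect minus the expected value EA + EB − EA·EB, where EA and EB are the effects of each agent alone. Combination Emax is the second-highest inhibition within the matrix. Inhibition was scaled from CellTiter-Glo 2.0 luminescence, with 0 set by vehicle wells and 1 by blank wells, after 72 hours of two-drug dosing of cells plated in 1536-well plates.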

[2] = tested on: COLO-680N (Esophageal Squamous Cell Carcinoma); test: as above
In short: as §1

[3] = tested on: RCM-1 (Colorectal Carcinoma); test: as above
In short: as §1

SF539 (Glioblastoma) [4] = test: as above
In short: as §1

[5] = tested on: REH (B-Lymphoblastic Leukemia); test: Bliss excess, mean over the matrix (fraction); higher = more synergy
In short: as §1

[6] = tested on: OVMIU (Ovarian Carcinoma); test: as above
In short: as §1

[7] = tested on: OPM-2 (Plasma Cell Myeloma); test: as above
In short: as §1

[8] = tested on: LK-2 (Squamous Cell Lung Carcinoma); test: as above
In short: as §1

[9] = tested on: PSN1 (Pancreatic Carcinoma); test: as above
In short: as §1

[10] = tested on: L-1236 (Hodgkin's Lymphoma); test: as above
In short: as §1

[11] = tested on: PANC-03-27 (Pancreatic Carcinoma); test: as above
In short: as §1

[12] = tested on: COLO-680N (Esophageal Squamous Cell Carcinoma); test: as above
In short: as §1

[13] = tested on: NCI-H2342 (Lung Adenocarcinoma); test: as above
In short: as §1

[14] = tested on: HSC-39 (Gastric Carcinoma); test: as above
In short: as §1

[15] = tested on: PC-3_[JPC-3] (Lung Adenocarcinoma); test: as above
In short: as §1

[16] = tested on: SK-PN-DW (Other Solid Carcinomas); test: as above
In short: as §1

[17] = tested on: RKN (Other Solid Carcinomas); test: as above
In short: as §1

[18] = tested on: MFE-280 (Endometrial Carcinoma); test: as above
In short: as §1

[19] = tested on: RCM-1 (Colorectal Carcinoma); test: as above
In short: as §1

SF539 (Glioblastoma) [20] = test: as above
In short: as §1

Structure (SMILES)	combination Emax [1]	combination Emax [2]	combination Emax [3]	combination Emax (SF539 (Glioblastoma) [4])	Bliss excess [5]	Bliss excess [6]	Bliss excess [7]	Bliss excess [8]	Bliss excess [9]	Bliss excess [10]	Bliss excess [11]	Bliss excess [12]	Bliss excess [13]	Bliss excess [14]	Bliss excess [15]	Bliss excess [16]	Bliss excess [17]	Bliss excess [18]	Bliss excess [19]	Bliss excess (SF539 (Glioblastoma) [20])
C=CCn1c(=O)c2cnc(Nc3ccc(N4CCN(C)CC4)cc3)nc2n1-c1cccc(C(C)(C)O)n1 [AZD1775] + CCc1c2c(nc3ccc(O)cc13)-c1cc3c(c(=O)n1C2)COC(=O)[C@]3(O)CC [SN-38] (first compound max 1 µM, partner max 0.3 µM)	0.954	0.483	0.775	0.997	-0.0887	-0.055	0.0117	0.0768	-0.0499	-0.0372	-0.0585	-0.0066	0.0025	-0.0065	-0.0575	-0.0903	0.0378	-0.0149	-0.0402	-0.0037
Cc1c2c(nn1C)CSCc1cc(n(C)n1)CSc1cc(c3ccccc3c1)OCCCc1c(C(=O)O)n(C)c3c-2c(Cl)ccc13 [AZD5991] + CC(=O)O[C@H]1C(=O)[C@@]2(C)[C@H]([C@H](OC(=O)c3ccccc3)[C@]3(O)C[C@H](OC(=O)[C@H](O)[C@@H](NC(=O)c4ccccc4)c4ccccc4)C(C)=C1C3(C)C)[C@]1(OC(C)=O)CO[C@@H]1C[C@@H]2O [Paclitaxel] (first compound max 1 µM, 7x7, partner max 3 µM)	1	0.476	0.342	0.971	-0.0011	0.0231	0.0072	0.0165	0.0098	-0.0631	0.0181	0.0107	0.082	0.0078	-0.0256	-0.0012	-0.0775	-0.0363	0.0336	0.0053
C[C@@H](Oc1cc(-c2cnn(C3CCNCC3)c2)cnc1N)c1c(Cl)ccc(F)c1Cl [Crizotinib] + Cn1cnc2c(F)c(Nc3ccc(Br)cc3Cl)c(C(=O)NOCCO)cc21 [Selumetinib] (first compound max 10 µM, 7x7, partner max 10 µM)	0.985	0.319	0.761	0.764	-0.0309	-0.0302	-0.0463	0.011	0.0373	-0.0849	-0.0689	-0.039	-0.0267	-0.0264	-0.0549	-0.0705	0.0181	-0.0544	-0.0089	-0.0212
C[C@@H](Nc1cc(F)cc(F)c1)c1cc(C(=O)N(C)C)cc2c(=O)cc(N3CCOCC3)oc12 [AZD8186] + CC(=O)c1c(C)c2cnc(Nc3ccc(N4CCNCC4)cn3)nc2n(C2CCCC2)c1=O [Palbociclib] (first compound max 10 µM, 7x7, partner max 10 µM)	0.563	0.419	0.335	0.412	0.0638	-0.0439	0.0338	0.0023	0.0298	-0.138	0.0614	-0.0328	0.0877	0.0271	-0.023	0.073	-0.0328	-0.0424	-0.0077	0.0583
C[C@@H](Oc1cc(-c2cnn(C3CCNCC3)c2)cnc1N)c1c(Cl)ccc(F)c1Cl [Crizotinib] + CC1=C(C(=CC=C1)Cl)NC(=O)C2=CN=C(S2)NC3=CC(=NC(=N3)C)N4CCN(CC4)CCO [Dasatinib] (first compound max 10 µM, 7x7, partner max 2 µM)	0.964	0.869	0.61	0.886	-0.0153	0.0041	0	-0.0103	-0.0469	-0.0626	0.0688	-0.0005	-0.0108	0.0093	-0.0005	-0.0426	0.0179	0.0091	-0.0081	0.0661
O=C(c1cc(Cc2n[nH]c(=O)c3ccccc23)ccc1F)N1CCN(C(=O)C2CC2)CC1 [Olaparib] + CC1(C)CCC(CN2CCN(c3ccc(C(=O)NS(=O)(=O)c4ccc(NCC5CCOCC5)c([N+](=O)[O-])c4)c(Oc4cnc5[nH]ccc5c4)c3)CC2)=C(c2ccc(Cl)cc2)C1 [Venetoclax] (first compound max 10 µM, 7x7, partner max 1 µM)	0.256	0.0836	0.0674	0.358	0.163	-0.067	0.0309	0.0039	-0.0231	-0.0009	-0.0675	-0.0584	-0.0201	0.0033	-0.0354	0.0049	-0.0305	-0.053	-0.0304	-0.0105
CS(=O)(=O)CCNCc1ccc(-c2ccc3ncnc(Nc4ccc(OCc5cccc(F)c5)c(Cl)c4)c3c2)o1 [Lapatinib] + Cn1cnc2c(F)c(Nc3ccc(Br)cc3Cl)c(C(=O)NOCCO)cc21 [Selumetinib] (first compound max 10 µM, 7x7, partner max 10 µM)	0.533	0.408	0.754	0.601	-0.0363	-0.102	-0.0294	-0.0131	-0.0544	-0.0646	0.044	-0.0171	-0.0418	-0.0089	-0.0292	-0.0095	-0.0081	-0.063	0.0661	0.0066
O=C(c1cc(Cc2n[nH]c(=O)c3ccccc23)ccc1F)N1CCN(C(=O)C2CC2)CC1 [Olaparib] + Cc1c2c(nn1C)CSCc1cc(n(C)n1)CSc1cc(c3ccccc3c1)OCCCc1c(C(=O)O)n(C)c3c-2c(Cl)ccc13 [AZD5991] (first compound max 10 µM, 7x7, partner max 1 µM)	1	0.0855	0.0639	0.46	0.0318	-0.0646	0.0251	0.041	-0.0506	-0.0851	-0.0462	-0.0543	-0.0462	0.0101	-0.0456	-0.0065	-0.0443	-0.0341	-0.0412	-0.0003
C[C@@H]1COCCN1c1cc(C2([S@](C)(=N)=O)CC2)nc(-c2ccnc3[nH]ccc23)n1 [AZD6738] + Nc1ccn([C@@H]2O[C@H](CO)[C@@H](O)C2(F)F)c(=O)n1 [Gemcitabine] (first compound max 10 µM, 7x7, partner max 0.3 µM)	0.942	0.529	0.744	0.981	0.0497	-0.0138	0.0289	0.128	0.0209	0.0294	-0.0185	0.0393	0.086	-0.0049	0.0434	-0.0579	0.0982	0.0731	0.0156	0.0251
N#Cc1cnc(Nc2cc(NC[C@H]3CNCCO3)c(C(F)(F)F)cn2)cn1 [SRA737] + C=CCn1c(=O)c2cnc(Nc3ccc(N4CCN(C)CC4)cc3)nc2n1-c1cccc(C(C)(C)O)n1 [AZD1775] (first compound max 10 µM, partner max 1 µM)	0.93	0.35	0.631	0.986	0.162	0.0717	0.106	0.115	0.0375	-0.0475	-0.0233	0.0422	0.0225	0.0943	-0.0239	0.0812	0.0124	0.0289	0.0488	0.0293
CN(CCO)CC[C@H](CSc1ccccc1)Nc1ccc(S(=O)(=O)NC(=O)c2ccc(N3CCC([C@@H](O)c4ccccc4-c4ccc(Cl)cc4)CC3)cc2)cc1S(=O)(=O)C(F)(F)F [AZD4320] + CS(=O)(=O)CCNCc1ccc(-c2ccc3ncnc(Nc4ccc(OCc5cccc(F)c5)c(Cl)c4)c3c2)o1 [Lapatinib] (first compound max 1 µM, 7x7, partner max 10 µM)	0.938	0.481	0.901	0.575	0.0721	0.106	0.0503	0.0876	-0.0405	-0.0252	0.023	-0.0042	-0.0137	0.0057	-0.0108	-0.0829	-0.0121	0.0411	0.0202	-0.0026
CC1(C)CCC(CN2CCN(c3ccc(C(=O)NS(=O)(=O)c4ccc(NCC5CCOCC5)c([N+](=O)[O-])c4)c(Oc4cnc5[nH]ccc5c4)c3)CC2)=C(c2ccc(Cl)cc2)C1 [Venetoclax] + CS(=O)(=O)CCNCc1ccc(-c2ccc3ncnc(Nc4ccc(OCc5cccc(F)c5)c(Cl)c4)c3c2)o1 [Lapatinib] (first compound max 1 µM, 7x7, partner max 10 µM)	0.64	0.231	0.42	0.309	0.0755	-0.0328	0.0306	0.0165	-0.0211	-0.0583	-0.0535	-0.0166	-0.0374	-0.0257	-0.0332	-0.0284	-0.0482	-0.0477	-0.0112	-0.0166
N#Cc1cnc(Nc2cc(NC[C@H]3CNCCO3)c(C(F)(F)F)cn2)cn1 [SRA737] + O=c1[nH]cc(F)c(=O)[nH]1 [5-Fluorouracil] (first compound max 10 µM, 7x7, partner max 20 µM)	0.84	0.387	0.578	0.915	0.0356	-0.0569	0.006	0.0756	0.0184	-0.0358	0.0112		-0.0171	-0.0252	-0.0443	0.0243	-0.0501	-0.0423	-0.0009	0.0471
Cc1nc(-c2cn3c(n2)-c2ccc(-c4cnn(C(C)(C)C(N)=O)c4)cc2OCC3)n(C(C)C)n1 [Taselisib] + O=C(Nc1ccc2[nH]nc(-c3ccncc3)c2c1)[C@@H]1CCN(CC(=O)N2CCN(c3ccc(-c4ncccn4)cc3)CC2)C1 [SCH772984] (first compound max 10 µM, 7x7, partner max 5 µM)	1	0.5	0.803	0.934	0.102	0.0699	0.0779	0.0371	0.0797	0.0543	0.0848	0.0219	0.103	0.029	0.0293	-0.0332	0.0798	0.0107	0.1	0.0465
